From patent publication US20180228780A1, “3-(1H-PYRROLO[2,3-C]PYRIDIN-2-YL)-1H-INDAZOLES AND THERAPEUTIC USES THEREOF” (Samumed, LLC, priority 2015, published 2018)

Legend:
Assay type in all cases: cell-based
[1] = tested on: Primary human fibroblasts derived from IPF patients (LL29 cells); assay: Inhibition of the fibrotic process: αSMA staining in TGF-β1-treated LL29 fibroblasts; settings: Fibroblast; for EC50: 96 h, LL29 cells, TGF-β1 20 ng/mL, 4 days, % αSMA-positive cells
In short: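 LL29 IPF-patient lung fibroblasts plated in F12 with 1% FBS, treated with TGF-β1 plus compound; TGF-β1/DMSO wells served as controls. After 4 days incubation, SYTOX green (1 μM final) added for 30 min at room temperature; αSMA staining used as fibrosis read-out.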

[2] = tested on: primary human mesenchymal stem cells (hMSCs); assay: Induction of chondrogenesis in hMSCs (nodule imaging, Rhodamine B / Nile Red); settings: 6 days; for Emax: relative to TGF-β3 (10 ng/mL) positive control, read-out: Max. Activity as % TGF-β3 activity; for EC50: concentration required to induce 50% levels of chondrogenesis vs TGF-β3, read-out: Conc (nM) of 50% TGF-β3 activity
In short: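 Primary hMSCs at passage 3-6 were treated with compound; nodule area per well was normalized to the mean of 3 DMSO wells, averaged over 2-3 replicates, and the concentration giving 50% chondrogenesis relative to TGF-β3 control, plus maximum activity and its dose, was derived.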

SW480 colon cancer cells = assay: Cell viability assay (CellTiter-Blue) in SW480 colon cancer cells; settings: Homo sapiens; for EC50: 96 h, SW480 cell viability, four days incubation; for inhibition at 10 µM: SW480, read-out: percent inhibition at 10 μM
In short: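 Fluorescence from resazurin reduced to resorufin by metabolically active cells was the read-out, taken after ~3 h with CellTiter-Blue.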

IL-6 (THP-1 cells) = assay: IL-6 inhibition in THP-1 monocytes (HTRF); settings: Homo sapiens; for EC50: IL-6 inhibition, THP-1 cells, HTRF, 10-point dose-response starting from 10 μM; for inhibition at 10 µM: THP-1, read-out: percentage in parentheses printed under EC50 >10
In short: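 THP-1 cells serum-reduced (1% FBS, 24 h), plated 5000/well, stimulated with 500 ng/mL […] after 2 h and incubated a further 22 h at 37 °C. Secreted IL-6 quantified by HTRF (665/620 nm ratio), normalized to DMSO; EC50 from four-parameter fit, duplicates.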

[3] = tested on: Wnt activity (Sp5-Luc reporter, SW480 colon carcinoma cells); assay: Screening assay for Wnt activity: Sp5-Luc reporter gene assay in SW480 cells; settings: Homo sapiens; for EC50: SW480 Sp5-Luc reporter, overnight incubation; for inhibition at 10 µM: SW480, read-out: percent inhibition at 10 μM
In short: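 SW480 colon carcinoma cells stably carrying Sp5 promoter (eight TCF/LEF sites)-driven firefly luciferase, plated at 4,000 cells/well in 1% FBS medium and incubated overnight at 37° C. Luminescence normalised to DMSO-only cells; EC50 from four-parameter variable-slope nonlinear regression.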

Structure (SMILES)	EC50 [1]	Emax [2]	EC50 (SW480 colon cancer cells)	EC50 (IL-6 (THP-1 cells))	EC50 [3]	EC50 [2]	inhibition at 10 µM ([1]; read-out: percent inhibition at 10 μM)	inhibition at 10 µM (IL-6 (THP-1 cells))	inhibition at 10 µM (SW480 colon cancer cells)	inhibition at 10 µM [3]
CS(=O)(=O)NCc1cc(F)cc(-c2cncc3[nH]c(-c4n[nH]c5ccc(-c6cncc(NC(=O)C7CCC7)c6)cc45)cc23)c1 [Compound 497, N-(5-(3-(4-(3-Fluoro-5-(methylsulfonamidomethyl)phenyl)-1H-pyrrolo[2,3-c]pyridin-2-yl)-1H-indazol-5-yl)pyridin-3-yl)cyclobutanecarboxamide]	5430 nM	15%	1100 nM	0.198 µM	554 nM					
Fc1cccc(-c2cncc3[nH]c(-c4n[nH]c5ccc(C6CCNCC6)cc45)cc23)c1 [Compound 505, 3-(4-(3-Fluorophenyl)-1H-pyrrolo[2,3-c]pyridin-2-yl)-5-(piperidin-4-yl)-1H-indazole]	2500 nM	51%	4150 nM	5.43 µM	3230 nM	2700 nM				
Cn1cc(-c2ccc3[nH]nc(-c4cc5c(-c6cccnc6)cncc5[nH]4)c3c2)cn1 [Compound 556, 5-(1-Methyl-1H-pyrazol-4-yl)-3-(4-(pyridin-3-yl)-1H-pyrrolo[2,3-c]pyridin-2-yl)-1H-indazole]	> 10000 nM	65%	506 nM	> 10 µM	250 nM	30 nM	0%	44.3%		
Cc1ncc(-c2ccc3[nH]nc(-c4cc5c(-c6ccncc6)cncc5[nH]4)c3c2)n1C [Compound 573, 5-(1,2-Dimethyl-1H-imidazol-5-yl)-3-(4-(pyridin-4-yl)-1H-pyrrolo[2,3-c]pyridin-2-yl)-1H-indazole]	2160 nM	28%	> 10000 nM	> 10 µM	2900 nM			11%	30.3%	
CN1CCN(c2cncc3[nH]c(-c4n[nH]c5ccc(-c6cncc(NC(=O)CC7CCNCC7)c6)cc45)cc23)CC1 [Compound 641, N-(5-(3-(4-(4-Methylpiperazin-1-yl)-1H-pyrrolo[2,3-c]pyridin-2-yl)-1H-indazol-5-yl)pyridin-3-yl)-2-(piperidin-4-yl)acetamide]	6440 nM	289%	> 10000 nM	> 10 µM	> 10000 nM	100 nM		43.7%	11.9%	6.7%
c1cc2cc(-c3n[nH]c4ccc(-c5cncc(OCCN6CCCC6)c5)cc34)[nH]c2cn1 [Compound 658, 5-(5-(2-(Pyrrolidin-1-yl)ethoxy)pyridin-3-yl)-3-(1H-pyrrolo[2,3-c]pyridin-2-yl)-1H-indazole]	925 nM	45%	3150 nM	0.134 µM	1840 nM					
COc1cncc(-c2ccc3[nH]nc(-c4cc5c(-c6ccsc6)cncc5[nH]4)c3c2)c1 [Compound 676, 5-(5-Methoxypyridin-3-yl)-3-(4-(thiophen-3-yl)-1H-pyrrolo[2,3-c]pyridin-2-yl)-1H-indazole]	434 nM	40%	510 nM	2.58 µM	956 nM					
COc1cncc(-c2ccc3[nH]nc(-c4cc5c(-c6ccoc6)cncc5[nH]4)c3c2)c1 [Compound 692, 3-(4-(Furan-3-yl)-1H-pyrrolo[2,3-c]pyridin-2-yl)-5-(5-methoxypyridin-3-yl)-1H-indazole]	728 nM	170%	1100 nM	8.27 µM	2200 nM	10 nM				
CN(C)Cc1cncc(-c2cc(F)c3[nH]nc(-c4cc5c(-c6cccc(F)c6)cncc5[nH]4)c3c2)c1 [Compound 991, 1-(5-(7-Fluoro-3-(4-(3-fluorophenyl)-1H-pyrrolo[2,3-c]pyridin-2-yl)-1H-indazol-5-yl)pyridin-3-yl)-N,N-dimethylmethanamine]	1230 nM	38%	1040 nM	3.71 µM	3710 nM					
CN(C)Cc1cncc(-c2cc3c(-c4cc5c(-c6cccc(F)c6)cncc5[nH]4)n[nH]c3cc2F)c1 [Compound 992, 1-(5-(6-Fluoro-3-(4-(3-fluorophenyl)-1H-pyrrolo[2,3-c]pyridin-2-yl)-1H-indazol-5-yl)pyridin-3-yl)-N,N-dimethylmethanamine]	920 nM	21%	294 nM	0.074 µM	960 nM					
CN(C)Cc1cncc(-c2ccc3[nH]nc(-c4cc5c(-c6cccc(F)c6)cncc5[nH]4)c3c2F)c1 [Compound 993, 1-(5-(4-Fluoro-3-(4-(3-fluorophenyl)-1H-pyrrolo[2,3-c]pyridin-2-yl)-1H-indazol-5-yl)pyridin-3-yl)-N,N-dimethylmethanamine]	1700 nM	114%	1600 nM	> 10 µM	> 10000 nM	2700 nM		18.1%		46.8%
